Experimental data: US6503881B2 (priority 1996, dated 2003)
Converted amounts (≈) assume the structure as drawn. Read-outs that look alike come from different tables or passages of the source.

Tested on: bacteria
Details: for MIC, Peptide: unmodified parent peptide
[1] = A. calcoaceticus AC002, agarose dilution
[2] = E. cloacae ECL007, agarose dilution
[3] = E. faecalis EFS001, agarose dilution
[4] = E. faecalis EFS008, agarose dilution
[5] = K. pneumoniae KP001, agarose dilution
[6] = P. aeruginosa PA004, agarose dilution
[7] = S. aureus SA014, agarose dilution
[8] = S. aureus SA093, agarose dilution
[9] = S. epidermidis SE010, agarose dilution
[10] = S. maltophilia SMA002, agarose dilution
[11] = S. marcescens SMS003, agarose dilution

Compound: CC[C@H](C)[C@H](NC(=O)[C@H](CC(C)C)NC(=O)[C@H](C)NC(=O)[C@@H]1CCCN1C(=O)[C@H](CC(C)C)NC(=O)CNC(=O)[C@@H](NC(=O)[C@@H](NC(=O)[C@H](CC(C)C)NC(=O)[C@@H](NC(=O)[C@H](CCCCN)NC(=O)[C@H](CCCCN)NC(=O)[C@@H](NC(=O)[C@H](C)NC(=O)[C@@H](NC(=O)[C@@H](NC(=O)[C@H](CC(C)C)NC(=O)[C@H](CCCCN)NC(=O)[C@H](CCCCN)NC(=O)[C@@H](NC(=O)[C@H](Cc1ccccc1)NC(=O)[C@H](CO)NC(=O)[C@H](CCCCN)NC(=O)[C@H](Cc1c[nH]c2ccccc12)NC(=O)[C@@H](N)CCCCN)[C@@H](C)CC)[C@@H](C)O)[C@@H](C)O)C(C)C)C(C)C)[C@@H](C)O)[C@@H](C)O)C(=O)N[C@@H](CO)C(=O)O [MBI29]
- MIC, Peptide [1]: 1 µg/mL (≈ 0.348 µM)
- MIC, Peptide [2]: >64 µg/mL
- MIC, Peptide (E. coli EC0005, agarose dilution): 4 µg/mL (≈ 1.39 µM)
- MIC, Peptide [3]: 0.5 µg/mL (≈ 0.174 µM)
- MIC, Peptide [4]: 0.5 µg/mL (≈ 0.174 µM)
- MIC, Peptide [5]: 2 µg/mL (≈ 0.696 µM)
- MIC, Peptide [6]: 16 µg/mL (≈ 5.57 µM)
- MIC, Peptide [7]: 1 µg/mL (≈ 0.348 µM)
- MIC, Peptide [8]: 0.5 µg/mL (≈ 0.174 µM)
- MIC, Peptide [9]: 4 µg/mL (≈ 1.39 µM)
- MIC, Peptide [10]: 2 µg/mL (≈ 0.696 µM)
- MIC, Peptide [11]: >128 µg/mL

Compound: I L K K F P F W P W R R K [MBI 11A7CN]
- MIC [1]: 4 µg/mL
- MIC [2]: >128 µg/mL
- MIC (E. coli ECO005, agarose dilution): 8 µg/mL
- MIC [3]: 2 µg/mL
- MIC (E. faecalis EFS002): 16 µg/mL
- MIC [4]: 4 µg/mL
- MIC (E. faecium EFM003): 2 µg/mL
- MIC [5]: 8 µg/mL
- MIC [6]: >128 µg/mL
- MIC (S. aureus SA009): 2 µg/mL
- MIC [7]: 4 µg/mL
- MIC [8]: 1 µg/mL
- MIC [9]: 4 µg/mL
- MIC [10]: 64 µg/mL
- MIC [11]: >28 µg/mL

Compound: I L K K F P W F P W R R K [MBI 11A6CN]
- MIC (A. calcoaceticus AC002): 2 µg/mL
- MIC (E. cloacae ECL007): >128 µg/mL
- MIC (E. coli ECO005): 16 µg/mL
- MIC (E. faecalis EFS001): 1 µg/mL
- MIC (E. faecalis EFS004): 64 µg/mL
- MIC (E. faecalis EFS008): 8 µg/mL
- MIC (E. faecium EFM003): 2 µg/mL
- MIC (K. pneumoniae KP001): 32 µg/mL
- MIC (P. aeruginosa PA004): >128 µg/mL
- MIC (S. aureus SA014): 4 µg/mL
- MIC (S. aureus SA016): 2 µg/mL

Compound: I L K K I P I I P I R R K [MBI 11A2CN]
- MIC (A. calcoaceticus AC001): >128 µg/mL
- MIC (E. cloacae ECL007): >128 µg/mL
- MIC (E. coli ECO003): >128 µg/mL
- MIC (E. faecalis EFS002): >128 µg/mL
- MIC (E. faecium EFM003): 16 µg/mL
- MIC (K. pneumoniae KP002): >128 µg/mL
- MIC (P. aeruginosa PA004): >128 µg/mL
- MIC (S. aureus SA004): 8 µg/mL
- MIC (S. maltophilia SMA001): >128 µg/mL
- MIC (S. marcescens SMS003): >128 µg/mL

Compound: I L K K P W W P W R R K [MBI 11G3CN]
- MIC (E. cloacae ECL007): >128 µg/mL
- MIC (E. coli ECO003): 64 µg/mL
- MIC (E. faecalis EFS002): 64 µg/mL
- MIC (E. faecium EFM002): 32 µg/mL
- MIC (K. pneumoniae KP001): >128 µg/mL
- MIC (P. aeruginosa PA003): >128 µg/mL
- MIC (S. aureus SA009): 8 µg/mL
- MIC (S. maltophilia SMA001): >128 µg/mL
- MIC (S. marcescens SMS004): >128 µg/mL

Compound: I L K K W P W P W R R K [MBI 11A4CN]
- MIC (A. calcoaceticus AC002): 8 µg/mL
- MIC (E. cloacae ECL007): >128 µg/mL
- MIC (E. coli ECO003): 32 µg/mL
- MIC (E. faecalis EFS002): 64 µg/mL
- MIC (E. faecium EFM001): 32 µg/mL
- MIC (K. pneumoniae KP001): >128 µg/mL
- MIC (P. aeruginosa PA004): >128 µg/mL
- MIC (S. aureus SA005): 2 µg/mL
- MIC (S. epidermidis SE002): 8 µg/mL
- MIC (S. maltophilia SMA002): >128 µg/mL
- MIC (S. marcescens SMS004): >128 µg/mL

Compound: I L K K W P W W A W R R K [MBI 11C4CN]
- MIC (A. calcoaceticus AC002): 4 µg/mL
- MIC (E. cloacae ECL007): >128 µg/mL
- MIC (E. coli ECO005): 32 µg/mL
- MIC (E. faecalis EFS002): 32 µg/mL
- MIC (E. faecium EFM003): 2 µg/mL
- MIC (K. pneumoniae KP001): >128 µg/mL
- MIC (P. aeruginosa PA005): >128 µg/mL
- MIC (S. aureus SA009): 4 µg/mL
- MIC (S. epidermidis SE002): 4 µg/mL
- MIC (S. maltophilia SMA002): 64 µg/mL
- MIC (S. marcescens SMS004): >128 µg/mL

Compound: I L K K W P W W P R R K [MBI 11G6ACN]
- MIC (A. calcoaceticus AC002): 4 µg/mL
- MIC (E. coli ECO005): 64 µg/mL
- MIC (E. faecalis EFS008): >128 µg/mL
- MIC (S. aureus SA014): 64 µg/mL
- MIC (S. epidermidis SE010): 32 µg/mL
- MIC (S. maltophilia SMA002): >128 µg/mL
